# Biological target: Casein kinase I isoform epsilon (Homo sapiens) (UniProt P49674)
# Assay: inhibition of CK1 epsilon activity – biochemical, Z'-LYTE, FRET, direct format, dose response (AID 1671245)
# Settings: Z'-LYTE FRET kinase activity assay, recombinant CSNK1E
# Sequence of Casein kinase I isoform epsilon (Homo sapiens) (P49674 whole entry, looked up, canonical isoform): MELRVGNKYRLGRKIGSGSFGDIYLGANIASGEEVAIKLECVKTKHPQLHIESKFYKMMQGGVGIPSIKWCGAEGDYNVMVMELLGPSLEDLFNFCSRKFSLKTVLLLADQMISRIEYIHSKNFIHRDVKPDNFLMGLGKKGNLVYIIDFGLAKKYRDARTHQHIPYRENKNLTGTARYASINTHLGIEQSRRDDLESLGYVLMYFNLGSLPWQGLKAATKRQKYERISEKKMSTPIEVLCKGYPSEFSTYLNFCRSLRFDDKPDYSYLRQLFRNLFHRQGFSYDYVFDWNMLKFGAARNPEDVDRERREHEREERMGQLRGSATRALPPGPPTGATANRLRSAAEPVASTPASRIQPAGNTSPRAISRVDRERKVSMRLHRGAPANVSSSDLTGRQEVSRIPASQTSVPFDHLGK
smiles,measurement,value
Brc1c(Br)c(Br)c2n[nH]nc2c1Br,IC50,4.83 µM
